Test results published in PubChem BioAssay (NCI).
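Five concentrations, 48 hours, 96-well plates. The concentration for 50% growth inhibition is given as GI50. At the TGI there is no net growth.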

Legend:
Test in all cases: NCI anticancer screen, dose series, 48 h
A498 renal = test system: A498 renal
A549 NSCLC = test system: A549 NSCLC
ACHN renal = test system: ACHN renal
HCC-2998 colon = test system: HCC-2998 colon
MALME-3M melanoma = test system: MALME-3M melanoma
MDA-MB-231 breast = test system: MDA-MB-231 breast
NCI-H460 lung = test system: NCI-H460 lung
SK-MEL-2 melanoma = test system: SK-MEL-2 melanoma
SK-MEL-5 melanoma = test system: SK-MEL-5 melanoma
SN12C renal = test system: SN12C renal
UACC-257 melanoma = test system: UACC-257 melanoma

Structure (SMILES) | TGI (A498 renal) [µM] | TGI (A549 NSCLC) [µM] | TGI (ACHN renal) [µM] | TGI (HCC-2998 colon) [µM] | TGI (MALME-3M melanoma) [µM] | TGI (MDA-MB-231 breast) [µM] | TGI (NCI-H460 lung) [µM] | TGI (SK-MEL-2 melanoma) [µM] | TGI (SK-MEL-5 melanoma) [µM] | TGI (SN12C renal) [µM] | TGI (UACC-257 melanoma) [µM] | GI50 (A498 renal) [µM] | GI50 (ACHN renal) [µM] | GI50 (SK-MEL-2 melanoma) [µM]
Cc1nc2nnc(CCCCCCCCc3nnc4nc(C)[nH]n34)n2[nH]1 | > 100 | > 100 | > 100 | > 100 | > 100 | > 100 | > 100 | > 100 | > 100 | > 100 | > 100 | – | – | –
COc1ccc2nc(-c3ccc(N)cc3)sc2c1 | > 100 | > 100 | > 100 | > 100 | > 100 | > 100 | > 100 | > 100 | > 100 | – | > 100 | – | – | –
COC(OC)c1cccc2c1C(=O)CCC1(CC2)OCCCCO1 | > 100 | > 100 | > 100 | > 100 | > 100 | – | > 100 | > 100 | > 100 | > 100 | > 100 | – | – | –
O=[N+]([O-])c1ccc(CSC2=C(c3ccc(Cl)cc3)S/C(=C3\SC(SCc4ccc([N+](=O)[O-])cc4)=C(c4ccc(Cl)cc4)S3)S2)cc1 | > 100 | > 100 | > 100 | > 100 | > 100 | > 100 | > 100 | > 100 | > 100 | > 100 | > 100 | – | – | –
Cc1cc2c3ccccc3n3c2c2c1OC1(C)CCC(C2C1)C3(C)C (stereo not drawn) | – | > 25 | > 25 | > 25 | > 25 | – | > 25 | > 25 | > 25 | > 25 | – | – | – | –
CCn1c(=O)c2nc(SC)sc2n(-c2ccccc2)c1=S | – | > 100 | > 100 | > 100 | > 100 | > 100 | > 100 | > 100 | > 100 | > 100 | > 100 | – | – | –
C#C[C@]1(O)CC[C@H]2[C@@H]3CCC4=C/C(=N/OC(=O)c5cccc6cc7ccccc7nc56)CC[C@@H]4[C@H]3CC[C@@]21CC | > 100 | > 100 | > 100 | > 100 | – | > 100 | > 100 | > 100 | > 100 | > 100 | > 100 | – | – | –
CSC(SC)=C(C#N)C(=O)Nc1ccc(Cl)cc1 | 90.4 | > 100 | – | > 100 | > 100 | > 100 | > 100 | > 100 | > 100 | > 100 | > 100 | – | – | –
C/C(=C\COP(=O)(O)OP(=O)(O)O)CC/C=C(\C)CNc1c(F)c(F)c(F)c(F)c1F | – | > 100 | > 100 | > 100 | > 100 | > 100 | > 100 | > 100 | > 100 | > 100 | > 100 | – | – | –
C[N+]1(CC[N+]2(C)CCCC2c2cccnc2)CCCC1c1cccnc1 (stereo not drawn) | > 100 | > 100 | > 100 | > 100 | > 100 | > 100 | > 100 | > 100 | > 100 | > 100 | > 100 | – | – | –
Cc1ccc2c(c1)CC1(Cc3cc(C)ccc3C1=O)C2=O | > 100 | > 100 | > 100 | > 100 | > 100 | > 100 | > 100 | > 100 | > 100 | – | > 100 | – | – | –
CN(C)CCCn1c(-c2ccc(Br)cc2)csc1=Nc1ccccc1 | 28.3 | 48.9 | 37.7 | 18.3 | – | > 100 | 39.4 | 31 | – | 70.9 | 29.8 | – | – | –
CCOC(=O)c1c(NS(=O)(=O)c2ccccc2)sc2c1CCCC2 | > 100 | > 100 | > 100 | – | – | > 100 | > 100 | > 100 | > 100 | > 100 | > 100 | – | – | –
C=CC[PH+](c1ccccc1)c1ccccc1.C=CC[PH+](c1ccccc1)c1ccccc1.[Pt+2].[S-]c1nc2ccccc2[nH]1.[S-]c1nc2ccccc2[nH]1 | 4.98 | – | > 100 | – | – | – | – | 5.36 | – | – | – | 1.72 | 3.89 | 2.25
O=C(OC[C@H]1C[C@H]2C(=O)OCCC[C@H]2O1)c1ccccc1 | > 100 | > 100 | > 100 | – | – | > 100 | > 100 | > 100 | > 100 | > 100 | > 100 | – | – | –
COC(=O)[C@@H]1CN(C(=O)Cc2ccccc2)C(=O)N1 | > 100 | > 100 | > 100 | – | > 100 | > 100 | > 100 | – | > 100 | > 100 | > 100 | – | – | –
Cc1cc2nc3c(N)nn(CCCN(C)C)c3nc2cc1C | > 100 | > 100 | > 100 | > 100 | – | > 100 | > 100 | – | > 100 | > 100 | > 100 | – | – | –
CN1N=C(c2ccncc2)OC1c1ccc(C(F)(F)F)cc1 (stereo not drawn) | > 100 | > 100 | > 100 | > 100 | – | > 100 | > 100 | > 100 | > 100 | > 100 | > 100 | – | – | –
CCN(CC)C(=O)N[C@@H](CC(C)C)C(=O)NC | > 100 | > 100 | > 100 | > 100 | > 100 | > 100 | > 100 | > 100 | > 100 | > 100 | – | – | – | –
CCCOC(=O)CCC(NC(=O)c1ccc(Nc2nc3ccccc3nc2-c2cccs2)cc1)C(=O)OCCC (stereo not drawn) | – | > 100 | > 100 | > 100 | 88.9 | – | – | 59.9 | > 100 | > 100 | – | – | – | –
O=C(Cn1c(=O)oc2ccccc21)N(c1ccccc1)c1ccccc1 | > 100 | – | > 100 | – | > 100 | > 100 | > 100 | > 100 | > 100 | > 100 | > 100 | – | – | –
